Measurements published in US4197286A, “Testosterone derivatives and assay method” (Southwest Research Institute, priority 1977, dated 1980).

System: anti-testosterone serum from rabbit No. X-181
Assay: Cross-reactivity of structurally similar steroids with the anti-testosterone serum
Assay type: binding
Conditions: antiserum of rabbit X-181; testosterone = 100
Experimental: Also, the cross-reactivity of pertinent and structurally similar steroids was determined to be as follows:

| Structure (SMILES) | % CROSS-REACTIVITY |
| --- | --- |
| C[C@]12CC[C@H]3[C@@H](CC=C4C[C@@H](O)CC[C@@]43C)[C@@H]1CC[C@@H]2O [5-Androstene-3β,17β-diol] | 0.51% |
| C[C@]12CC[C@@H](O)C[C@@H]1CC[C@@H]1[C@@H]2CC[C@]2(C)[C@@H](O)CC[C@@H]12 [5α-Androstane-3α, 17β-diol] | 0.00% |
| C[C@]12CC[C@H](O)C[C@@H]1CC[C@@H]1[C@@H]2CC[C@]2(C)[C@@H](O)CC[C@@H]12 [5α-Androstane-3β,17β-diol] | 2.19% |
| C[C@]12CCC(=O)C[C@@H]1CC[C@@H]1[C@@H]2CC[C@]2(C)[C@@H](O)CC[C@@H]12 [5α-Dihydrotestosterone] | 6.65% |
| C[C@]12CCC(=O)C[C@H]1CC[C@@H]1[C@@H]2CC[C@]2(C)C(=O)CC[C@@H]12 [5β-Androstane-3,17-dione] | 0.00% |
| C[C@]12CCC(=O)C[C@H]1CC[C@@H]1[C@@H]2CC[C@]2(C)[C@@H](O)CC[C@@H]12 [5β-Dihydrotestosterone] | 0.63% |
| C[C@]12CC[C@H]3[C@@H](C[C@H](O)C4=CC(=O)CC[C@@]43C)[C@@H]1CC[C@@H]2O [6α-Hydroxytestosterone] | 0.75% |
| C[C@]12CCC(=O)C=C1CC[C@@H]1[C@@H]2[C@@H](O)C[C@]2(C)C(=O)CC[C@@H]12 [11β-Hydroxyandrostenodione] | 0.00% |
| C[C@]12C[C@H](O)[C@H]3[C@@H](CCC4=CC(=O)CC[C@@]43C)[C@@H]1CC[C@@H]2O [11β-Hydroxytestosterone] | 0.00% |
| C[C@]12CC(=O)[C@H]3[C@@H](CCC4=CC(=O)CC[C@@]43C)[C@@H]1CC[C@@H]2O [11β-Oxotestosterone] | 1.80% |
| C[C@]12CCC(=O)C=C1CC[C@@H]1[C@@H]2CC[C@]2(C)C(=O)CC[C@@H]12 [Androstenedione] | 0.90% |
| C[C@]12CC[C@@H](O)C[C@@H]1CC[C@@H]1[C@@H]2CC[C@]2(C)C(=O)CC[C@@H]12 [Androsterone] | 0.00% |
| C[C@]12C[C@H](O)[C@H]3[C@@H](CCC4=CC(=O)CC[C@@]43C)[C@@H]1CC[C@@H]2C(=O)CO [Corticosterone] | 0.00% |
| C[C@]12CC[C@H](O)CC1=CC[C@@H]1[C@@H]2CC[C@]2(C)C(=O)CC[C@@H]12 [Dehydroepiandrosterone] | 0.00% |
| C[C@]12CC[C@H]3[C@@H](CCC4=CC(=O)CC[C@@]43C)[C@@H]1CC[C@@H]2C(=O)CO [Deoxycorticosterone] | 0.00% |
| C[C@]12CC[C@H](O)C[C@@H]1CC[C@@H]1[C@@H]2CC[C@]2(C)C(=O)CC[C@@H]12 [Epiandrosterone] | 0.19% |
| C[C@]12CC[C@@H]3c4ccc(O)cc4CC[C@H]3[C@@H]1CC[C@@H]2O [Estradiol] | 0.43% |
| C[C@]12CC[C@@H]3c4ccc(O)cc4CC[C@H]3[C@@H]1C[C@@H](O)[C@@H]2O [Estriol] | 0.00% |
| C[C@]12CC[C@@H]3c4ccc(O)cc4CC[C@H]3[C@@H]1CCC2=O [Estrone] | 0.00% |
| CC(=O)[C@H]1CC[C@H]2[C@@H]3CCC4=CC(=O)CC[C@]4(C)[C@H]3CC[C@]12C [Progesterone] | 0.00% |
| C[C@]12CC[C@H]3[C@@H](CCC4=CC(=O)CC[C@@]43C)[C@@H]1CC[C@@H]2O [Testosterone] | 100.00% |
